This is an account of results in paper PMC4828312 (Journal of neurochemistry, 2016).

For one assay, the target named is tubulin dimer. The assay can be described thus: Surface plasmon resonance. As to conditions: peptides injected at 10 nM – 500 µM; three independent experiments; Fig. 2D. It counts as binding, Porcine.
Assay [1] has as its target assembled MTs (containing ~25% of TUBB3). The assay can be described thus: Surface plasmon resonance. It counts as binding, Porcine. As to conditions: peptides injected at 10 nM – 500 µM; three independent experiments; Fig. 2D. (SPR reads the build-up and loss of mass on a sensor chip optically.)
Assay [2] concerns cortical neurons. The assay can be described thus: Length of neuronal processes. It counts as cell-based, rat. The note with it: gp120s (all 5 nM) in combination with Helix-A peptide or Helix-A nano (5 µM each), 24 hr; three independent experiments.
The next assay deals with primary cortical neurons. The assay can be described thus: Cell viability, Hoechst/PI co-staining. The format is cell-based, rat. As to conditions: gp120s in combination with Helix-A nano or Helix-A peptide, 24 hr; three separate experiments, n=200 neurons each group; Fig. 6A.
In assay [3] the test system is cortical neurons. The assay can be described thus: LDH release. The format is cell-based, rat. The note with it: gp120s in combination with Helix-A nano or Helix-A peptide, 24 hr; three separate experiments; Fig. 6B. For orientation: Release of lactate dehydrogenase indicates damage to the cell membrane.
The next assay has as its system CXCR4. The note with it: cited from earlier work.
The target of the next assay is recombinant TUBB3 (Homo sapiens, UniProt Q13509). The assay can be described thus: Surface plasmon resonance. The format is binding. As to conditions: peptides injected at 10 nM – 500 µM; three independent experiments; Fig. 2D.
Sequence of recombinant TUBB3 (Q13509 whole entry): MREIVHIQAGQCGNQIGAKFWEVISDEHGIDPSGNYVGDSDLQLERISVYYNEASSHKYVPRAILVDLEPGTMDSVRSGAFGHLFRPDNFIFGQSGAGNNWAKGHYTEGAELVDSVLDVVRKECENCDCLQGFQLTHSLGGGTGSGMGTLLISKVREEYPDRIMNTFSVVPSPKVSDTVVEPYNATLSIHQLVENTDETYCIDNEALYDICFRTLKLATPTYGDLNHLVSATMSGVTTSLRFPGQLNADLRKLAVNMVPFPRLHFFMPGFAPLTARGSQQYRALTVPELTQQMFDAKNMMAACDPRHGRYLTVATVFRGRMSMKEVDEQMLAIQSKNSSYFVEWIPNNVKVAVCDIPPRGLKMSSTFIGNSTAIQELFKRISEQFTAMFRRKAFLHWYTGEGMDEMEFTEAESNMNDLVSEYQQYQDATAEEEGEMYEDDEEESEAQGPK

NDMVEQMHEDIISLWDQSLK [Helix-A]: the “Binding of peptide to tubulin dimer by SPR” value on tubulin dimer is “in the higher micromole range”. The “Binding of peptide to assembled MTs by SPR” value in assay [1] is reported as “in the higher micromole range”. The “Prevention of gp120-mediated neurite pruning” value with cortical neurons [2] is recorded as “but not Helix-A peptide prevented the gp120-mediated neurite pruning”. Also, the “Prevention of gp120-induced neuronal loss, Hoechst/PI staining” value in the assay with primary cortical neurons was “but not Helix-A peptide abolished all neurotoxic effects of gp120”. For the same molecule, the “Prevention of gp120-induced neuronal loss, LDH release” value in the assay with cortical neurons [3] is listed as “but not Helix-A peptide abolished all neurotoxic effects of gp120”.

On to `c1cc(CN2CCCNCCNCCCNCC2)ccc1CN1CCCNCCNCCCNCC1` [AMD3100], for which, in the assay with CXCR4 (ref Bachis et al. 2003), the “Internalization of gp120” value is recorded as “bloked”. Also, in the assay with CXCR4 (ref Melli et al. 2006, Meucci et al. 1998), the gp120 toxicity entry is “prevents gp120 toxicity”.

Consider RAKWNNTLKQIASK [Helix-B], for which, at recombinant TUBB3, the “Binding of peptide to TUBB3 by SPR” value is on record as “but not Helix-B peptide binds to TUBB3”.
